KR20220113942A, “제조성 및 용출성이 우수한 소형 정제” (스미토모 파마 가부시키가이샤, priority 2019, dated 2021)

Experiment: Test Example 2: evaluation of tabletability (capping on tableting)
Assay type: physicochemical
Conditions: conclusion in words from Table 22

In the case of `C[C@@H]1N=C(N)NC(N(C)C)=N1` [이메글리민, (6R)-N2,N2,6-트리메틸-3,6-디히드로-1,3,5-트리아진-2,4-디아민, 염산염], the compression moldability is reported as “압축 성형성이 나빠서” and the “tendency to tableting failure (capping) as drug content ratio in the tablet rises” value (high drug content ratio in the tablet) is reported as “타정 장해(캐핑)가 발생하기 쉬움”.
